# Where “and” joins values, the source holds several entries; their conditions need not be identical. Identical values can stand only once. Entries after “also recorded” stand apart in the source; their conditions may differ. Like-named read-outs stand apart in the source and are kept apart here.
# Columns and labels:
# [1] = tested on: glutamine transporter; assay: Glutamine-stimulated Isc / saturation kinetics of glutamine transporter; assay type: cell-based, mice; conditions: increasing IR dose
# [2] = tested on: mice with injury to small intestine mucosa; assay: Oral administration of candidate nutrients in radiation, chemotherapy and Crohn's disease models
# Procedure: In a Crohn's disease model, mice are injected with anti-CD3 mAb (acute inflammatory model to mimic conditions of Crohn's disease).
# The alterations of absorptive capacity of nutrients are determined using disease models with injury to small intestine mucosa, i.e., the radiation model, chemotherapy model, and the Crohn's disease model. Specifically, a candidate nutrient is orally administered to control mice and mice that received irradiation, chemotherapy, and anti-CD3 mAb, respectively. In addition, compositions containing various combinations of the candidate nutrients are orally administered.
# To determine the absorptive capacity of each nutrient, bioelectric measurements are performed using an Ussing chamber. The measurements include: a) the sodium coupled-amino acid current (ISC) and changes in conductance, b) changes in saturation kinetics of each nutrient and changes in the ISC following the administration of each nutrient; and c) the electrolyte absorption studies using isotope flux studies in the presence and absence of the specific candidate nutrient.
# [3] = tested on: GI tract mucosa; conditions: animal studies; cited from earlier work
# [4] = tested on: patients who have received pelvic radiation therapy; conditions: oral glutamine feeding; patients after pelvic radiation therapy; cited from earlier work
# [5] = tested on: jejunal mucosa (net anion secretion); assay: Ussing chamber transepithelial short circuit current (Isc) with transport blockers/forskolin; assay type: cell-based, mice; conditions: for basal Isc after bumetanide: 100 μM bumetanide in bath solution
# Description: To study active HCO3^− secretion, 8-week-old, non-irradiated and irradiated, male BALB/c mice were obtained from the National Cancer Institute. Mice were randomly divided into groups, and abdomens were irradiated according to the gastrointestinal acute radiation syndrome (GI ARS) model with a Shepherd Mark-I, using a ^137Cs source delivering γ-irradiation at 1.84 Gy/min. Radiation was given as a single fraction. The GI ARS model will achieve maximum radiation damage to intestinal tissues, and mimics intestinal injury during radiation therapy of pelvic or abdominal tumors.
# Changes in short circuit current (Isc), both as a function of time following radiation and with increasing doses of radiation, were examined to determine the earliest time and the minimum radiation dose required to produce significant changes in Isc. These studies were approved by the University of Rochester Animal Care and Use Committee.
# Following exsanguinations, jejunal segment was obtained by excluding the distal 12 cm of small intestine adjacent to the caecum. This segment was washed and flushed in ice-cold Ringer's solution before the mucosa was stripped from the underlying muscular layers (Zhang, Ameen et al. 2007). The mucosa was mounted between the 2 halves of an Ussing-type Lucite chamber with an area of 0.30 cm^2 (P2304, Physiologic instruments, San Diego, Calif. 92128 USA), and electrical parameters were recorded using a voltage/current clamp device (VCC MC-8, Physiologic instruments, San Diego, Calif. 92128 USA) (Vidyasagar et al. 2005; Vidyasagar et al. 2004; Zhang et al. 2007; Vidyasagar and Ramakrishna 2002).
# To determine the contribution of NKCC1 to basal Isc, 100 μM bumetanide (Sigma-Aldrich Co., USA) was added to the bath solution.
# To determine whether the bumetanide-insensitive portion of Isc occurs via an apical membrane anion channel, a non-specific anion channel blocker, 5-nitro-2-(3-phenylpropylamino)-benzoic acid (Sigma-Aldrich Co., USA) (10 μM NPPB), and a specific cystic fibrosis transmembrane conductance regulator (CFTR) blocker (100 μM glibenclamide, Sigma-Aldrich Co., USA) were applied.
# [6] = tested on: jejunal mucosa (net anion secretion); assay: as above; assay type: cell-based, mice; conditions: 10 μM bumetanide
# [7] = tested on: jejunum (HCO3^− secretion); assay: pH stat measurement of HCO3^− secretion in stripped jejunal sheets; assay type: cell-based, mice
# Procedure: A Bi-burette TIM 856 (Radiometer Analytical SAS, Villeurbanne, France) was used to measure HCO3^− secretion in stripped jejunal sheets (Vidyasagar et al. 2005; Vidyasagar et al. 2004; Zhang et al. 2007). Automated pumps maintained a constant pH for luminal solution through the addition of 0.01 μl of 0.025 M sulfuric acid (H2SO4). Standard-to-stat pH calibration was established by adding a known quantity of H2SO4 to a weak buffering solution, which contains an increasing concentration of HCO3^− to produce a linear titration curve.
# Jejunal tissues were exposed to a buffered solution on the bath side (serosal side), while the luminal side was exposed to an HCO3^− free, low-buffered solution (0.1-mM HEPES (4-(2-hydroxyethyl)-1-piperazineethanesulfonic acid) buffer, pH 7.4). The HCO3^− secretion was equivalent to the amount of acid added to the luminal solution to maintain the pH at 7.4 (or the stat pH). All experiments were performed under voltage-clamp conditions. HCO3^−-free solution was gassed with 100% O2 and HCO3^−-containing solution was gassed with 95% O2 and 5% CO2. The HCO3^− secretion was expressed as μeq h^−1·cm^−2 (Vidyasagar et al. 2005; Vidyasagar et al. 2004; Zhang et al. 2007).
# After the tissue was mounted, HCO3^− secretions were initially present in the absence of bath HCO3^−, but rapidly fell towards 0 within 20-30 minutes. If bath HCO3^− was not present during the titration, the HCO3^− secretion remained close to 0. […] When inhibitors were added to the mucosal solution, the pH was adjusted and allowed to equilibrate for 30 minutes, until a steady rate of HCO3^− secretion was observed. When the inhibitor was added to the bath side, the tissue was also equilibrated for 30 minutes to achieve a steady rate of HCO3^− secretion (see Table 3).
# All experiments were performed during the initial 1-hour steady-state period. 1 tissue from each animal was used for each experiment; only 1 experimental condition was studied with each tissue sample. All experiments were repeated for at least 4 times.
# [8] = tested on: small intestine mucosa; conditions: mouse, in vivo
# Procedure: Following each injection, transepithelial ISC, an indicator of net anion secretion, is measured using an Ussing chamber, at time points as indicated in FIG. 20. For each measurement, a minimum of 32 tissues is examined.
# [9] = tested on: IR mice; conditions: lysine 20 mg/mice/day orally for 5 days, thereafter every other day
# Description: Gavage was used during the experiment, and treatments were given on the first 5 days after irradiation and every other day until 10 days after irradiation.
# [10] = tested on: lysine-transporter; assay: Lysine-stimulated Isc / lysine transport kinetics; assay type: cell-based, mice
# [11] = clinical trials; cited from earlier work
# [12] = oral administration, radiation, chemotherapy and Crohn's disease models
# [13] = oral feeding of an irradiated subject
molecule,measurement,setting,value
NC(=O)CC[C@H](N)C(=O)O [glutamine],Km of glutamine transporter (saturation kinetics),[1]; FIG. 15,IR dose-dependent increase in Km
same,glutamine-stimulated Isc,[1]; FIG. 15 legend,dose-dependent increase in glutamine-stimulated Isc
same,small intestine mucosa barrier,[2]; [12],impairs small intestine mucosa barrier
same,survival of mice,[2]; [12],has adverse effects on survival of mice
same,osmotic diarrhea,[2]; [13],cause osmotic diarrhea
same,survival,[2]; [13],reduced survival
same,protection of GI tract mucosa from injury caused by chemotherapy or radiation therapy,[3],protects both upper and lower GI tract mucosa from injury
same,prevention or alleviation of acute diarrhea,[4],fail to show that oral glutamine feeding can prevent or alleviate acute diarrhea
CCCCNc1cc(C(=O)O)cc(S(N)(=O)=O)c1Oc1ccccc1 [bumetanide],basal Isc after bumetanide,"[5]; 0-Gy mice, 1.6±0.2 without",0.9±0.1 μeq·h^−1·cm^−2
same,forskolin-stimulated Isc after bumetanide,[5]; 0 Gy,1.3±0.2 μeq·h^−1·cm^−2
same,forskolin-stimulated Isc after bumetanide,[5]; 3 Gy,0.4±0.1 μeq·h^−1·cm^−2
same,basal and forskolin-stimulated increase in Isc,"[5]; bumetanide on bath side, Cl^−-free solution on both sides",did not inhibit basal and forskolin-stimulated increase in Isc
same,basal Isc after bumetanide,"[5]; irradiated (3 Gy) tissues, 5.5±0.5 without",0.6±0.1 μeq·h^−1·cm^−2
same,Isc associated with IR,[6],abolished almost all of the Isc associated with IR
same,HCO3^− secretion,"[7]; 0 Gy + bumetanide, tissues treated with forskolin, Cl^−-free lumen solution",8.4 ± 0.4^ μeq·h^−1·cm^−2
same,HCO3^− secretion,"[7]; 3 Gy + bumetanide, Cl^−-free lumen solution",0.8 ± 0.1^ns μeq·h^−1·cm^−2
"O=c1[nH]cc(F)c(=O)[nH]1 [5-FU, 5-fluorouracil]",net anion secretion (transepithelial ISC),[8],significant increase in net anion secretion
same,toxicity to small intestine,[8],maximum toxicity to small intestine
NCCCC[C@H](N)C(=O)O [lysine],survival of IR mice with oral lysine,[9],increased survival; also recorded: can increase survival in mice
same,survival of IR mice with oral lysine,[9]; listed as Lysine,increased survival
same,survival,[2]; [13],prolongs survival
same,"effect of oral administration on small intestine healing, paracellular conductance, electrolyte absorption, survival","[2]; radiation, chemotherapy and Crohn's disease models, each amino acid","improve small intestine healing, reduces paracellular conductance (thereby improving small intestine mucosal barrier mechanism), increases absorption of electrolytes, and/or improves survival in animals"
same,Isc on addition of lysine to small intestine lumen side,[10],causes an increase in Isc
same,Km,[10]; 3 Gy IR tissues,270 ± 10 µM
same,lysine-stimulated Isc,"[10]; increasing IR dose, FIG. 16 legend",dose-dependent decrease in lysine-stimulated Isc
same,Km,[10]; tissues from non-IR mice,1160 ± 40 µM
sucralfate,reduction of acute GI symptoms (diarrhea prophylaxis),[11],only a moderate reduction of acute GI symptoms was achieved
C=C[C@@]1(C)CC(=O)[C@]2(O)[C@@]3(C)[C@@H](O)CCC(C)(C)[C@@H]3[C@H](O)[C@H](OC(C)=O)[C@@]2(C)O1 [forskolin],forskolin-stimulated Isc,[5]; 0 Gy,6.9±0.6 μeq·h^−1·cm^−2
same,forskolin-stimulated Isc in Cl^−-free solution,[5]; 0 Gy,1.7±0.2 μeq·h^−1·cm^−2
same,forskolin-stimulated Isc in Cl^−-free solution,[5]; 3-Gy irradiated mice,0.3±0.1 μeq·h^−1·cm^−2
same,forskolin-stimulated Isc,[5]; 3 Gy,7.3±0.5 μeq·h^−1·cm^−2
same,HCO3^− secretion,"[7]; 0 Gy + forskolin, Cl^− containing lumen solution",8.4±0.4 μeq·h^−1·cm^−2
same,HCO3^− secretion,"[7]; 0 Gy + forskolin, Cl^−-free lumen solution",8.7±0.4 μeq·h^−1·cm^−2 and 8.7 ± 0.4^ μeq·h^−1·cm^−2
same,HCO3^− secretion,"[7]; 3 Gy + forskolin, Cl^− containing lumen solution",0.6 ± 0.2 μeq·h^−1·cm^−2
same,HCO3^− secretion,"[7]; 3 Gy + forskolin, Cl^− containing lumen solution, listed as Forskolin",0.6±0.2 μeq·h^−1·cm^−2
same,HCO3^− secretion,"[7]; 3 Gy + forskolin, Cl^−-free lumen solution",0.9 ± 0.2^ μeq·h^−1·cm^−2
same,forskolin-stimulated HCO3^− secretion,"[7]; non-irradiated mice, bath Na^+ replaced with NMDG",0.3±0.01 μeq·h^−1·cm^−2

# Reference: US11752132B2, “Materials and methods for improving gastrointestinal function” (University of Florida Research Foundation, Incorporated, priority 2010, dated 2023)
